The values below are quoted from earlier work in patent US6174513A, “Stabilization of peptides and proteins for radiopharmaceutical use” (priority 1998, dated 2001).

In the data set the test system is somatostatin receptors in a variety of human tumors.

In the case of `C[C@@H](O)[C@@H]1NC(=O)[C@H](CCCCN)NC(=O)[C@@H](Cc2c[nH]c3ccccc23)NC(=O)[C@H](Cc2ccccc2)NC(=O)[C@@H](NC(=O)[C@H](N)Cc2ccccc2)CSSC[C@@H](C(=O)N[C@H](CO)[C@@H](C)O)NC1=O` [Octreotide], the “Binding affinity to somatostatin receptors” value is on record as “very high binding affinity”.
